Results from a melting point compilation (Tetko et al.).

Compound | melting point [°C]
O=C(O)c1cc(Br)cnc1Br | 184 to 185
CN(C)C1C(=O)C(=C(N)O)C(=O)C2(O)C(=O)C3=C(O)c4c(O)cccc4C(C)(O)C3C(O)C12 (centres undefined) | 121
COc1ccc(C(C#N)C(C)=O)c(Cl)c1 (centres undefined) | 79
O=[N+]([O-])c1ccc(Br)s1 | 44
O=C(O)Cc1nn(Cc2nc3cc(C(F)(F)F)ccc3s2)c(=O)c2ccccc12 | 197
C=C(C)CCCCCCCCCCCCCC | 2
FC(F)=C(F)C(F)=C(F)F | -132
OCCC(F)(F)C(F)(F)C(F)(F)C(F)(F)C(F)(F)C(F)(F)C(F)(F)C(F)(F)C(F)(F)C(F)(F)F | 92.7
OCC(I)CC(F)(F)C(F)(F)C(F)(F)C(F)(F)C(F)(F)C(F)(F)C(F)(F)C(F)(F)F (centres undefined) | 54 to 55
O=C1C2(CCCCC2)C(=O)C12CCCCC2 | 166
Nc1nc(F)cc(C(F)(F)F)c1F | 67
CN1CCN(Cc2ccccc2I)CC1 | 37 to 38
Nc1c(Br)cc(Br)c2c1C(=O)c1ccccc1C2=O | 227
O=[N+]([O-])c1cc(C(F)(F)F)cc([N+](=O)[O-])c1O | 47 to 48
O=C(O)CC1CC(=O)OC1C(=O)O (centres undefined) | 159
O=[N+]([O-])c1cc(C(F)F)c(Nc2ncc(C(F)(F)F)cc2Cl)c([N+](=O)[O-])c1 | 90
NC(=C(N)c1ccccc1)c1ccccc1 | 108
CC(C)(C)c1ccc(CCOc2ncnc3ccccc23)cc1 | 80.5
O=C(C1=NOC2C(=O)N(c3ccc(Cl)cc3)C(=O)C12)c1ccc(Cl)cc1 (centres undefined) | 152
O=C(Nc1ccc(F)cc1F)c1cccnc1Oc1cccc(C(F)(F)F)c1 | 160
COc1ccc(C(=CC(=O)N2CCOCC2)c2ccc(F)cc2)cc1OC | 108
C1CCN(CCN2CCCCC2)CC1 | -0.5
CCCCOC(=O)c1ccccc1C(=O)OCc1ccccc1 | 230
CCC(=O)c1ccco1 | 28
OC1OCCOC1O (centres undefined) | 101

Compound | melting point [°C]
CC(C)CC(=O)NC(C(=O)NC(C(=O)NC(CC(C)C)C(O)CC(=O)NC(C)C(=O)NC(CC(C)C)C(O)CC(=O)O)C(C)C)C(C)C (centres undefined) | 233
OCC1OC(OC2C(CO)OC(O)(CO)C2O)C(O)C(O)C1O (centres undefined) | 176
N#CN=CNc1ccccc1 | 138 to 141
S=C=Nc1c(Cl)cc(Cl)cc1Cl | 74 to 76
Cc1cc(N)c(N)cc1Cl | 137 to 140
O=c1[nH]c2ccc([N+](=O)[O-])cc2c(=O)o1 | 259 to 263
O=c1n(-c2ccccc2)c(=O)n(-c2ccccc2)c(=O)n1-c1ccccc1 | 285
O=C(Oc1ccccc1)c1ccc(C(=O)Oc2ccccc2)cc1 | 197
Clc1cc(Cl)cc(Br)c1 | 83
CCC(O)C(C)(C)C (centres undefined) | -1.67
CCCN(CCOc1c(Cl)cc(Cl)cc1Cl)C(=O)n1ccnc1 | 48.3
CCCCNC(=O)COC(=O)c1ccccc1 | 69.5
O=C(O)c1[nH]c2ccc([N+](=O)[O-])cc2c1-c1ccccc1 | 290
CC(C)C12C=CC(C)(CC1)OO2 (centres undefined) | 3.3
Clc1cc(Cl)c2c(c1Cl)Oc1ccccc1O2 | 128
CC(=O)NCc1c(I)c(NC(C)=O)c(I)c(C(=O)O)c1I | 255
c1ccc(-c2cc3cc4cc(-c5ccccc5)[nH]c4cc3[nH]2)cc1 | > 270
O=[N+]([O-])c1ccc(-n2ncc3cccnc32)c([N+](=O)[O-])c1 | 181 to 187
O=C1NC(CCO)C(=O)NC1CCO (centres undefined) | 188 to 192
FC1(F)C(F)(F)C(F)(Cl)C1(F)Cl (centres undefined) | -15
COc1ccc(CNC(=O)c2ccccc2)cc1OCc1ccccc1 | 143
Nc1cccc(Br)n1 | 90
CCOC(=O)C(=O)CC(=O)c1cccs1 | 38 to 40
O=C1NN=C(C(F)(F)F)C1=NNc1cc(Cl)ccc1Cl | 214

The remaining lines, values ahead:

melting point [°C] | Compound
265 to 267 | CC(CCC(=O)O)C1CCC2C(C(=O)O)C(C3(C)CCCCC3C(=O)O)CCC12C (centres undefined)
125 | CC1CCC(C(C)C)C(OC(=O)C2=CCC(C(=O)OC3CC(C)CCC3C(C)C)CC2)C1 (centres undefined)
82 | C(=Cc1ccccc1)CCC=Cc1ccccc1
142 to 144 | Cc1cccc2c1CC(C(=O)O)N(C(=O)OC(C)(C)C)C2 (racemic)
80 to 82 | Cc1ccc(S(=O)(=O)OCCOCCOCCOS(=O)(=O)c2ccc(C)cc2)cc1
173 to 175 | CC(=O)CN1C(=O)N2CCc3ccccc3C2(c2ccc(Cl)cc2)C1=O (centres undefined)
235 | CCOC(=O)Nc1ccc2cc3ccc4c(c3nc2c1)COC(=O)N4
37 to 44 | NCc1ccc(N2CCCC2)cc1
50 to 51 | FC(F)(F)c1ccnc(N2CCCNCC2)n1
74 to 78 | O=Cc1ccc(OCc2c(F)cccc2Cl)cc1
93.8 | O=c1occcc1O
158 | COc1ccccc1C1(C)CCc2oc3ccccc3c2-c2oc(C)cc21 (centres undefined)
125 | CC12CCC(=O)N1C(c1ccccc1)CO2 (centres undefined)
39 | Clc1nsc2ccccc12
158 | COc1ccccc1/C=C(\C#N)c1nc2ccccc2s1
68 | c1ccc(CN2CCCNCCN(Cc3ccccc3)CCCNCC2)cc1
112 | COc1ccc(C(=O)C(O)c2ccc(OC)cc2)cc1 (centres undefined)
137 to 139 | Cc1n[nH]c(C)c1C
143 to 144 | Clc1ccc2c(c1)c1cc(Cl)ccc1n2CC1CO1 (centres undefined)
156 to 159 | CC(C)(C)OC(=O)NC1(C(=O)O)CCc2ccccc21 (racemic)
199 | Cc1ccc(-c2c(C#N)c(=O)n3c(sc4ccccc43)c2C(N)=O)cc1
270 | NC(=O)/C(=N\Nc1cc(Cl)ccc1Cl)c1nc2ccccc2s1
153 | CC(=O)OC1CCC2(C)C(CCC3C2CCC2(C)C3CCC23OCCO3)C1 (centres undefined)
131 to 138 | O=C1NC(=O)[C@@H]2CC=CC[C@H]12

melting point [°C] | Compound
155 to 160 | COc1cc(N)c(C(=O)O)cc1OC
109 | CCCCCC(O)c1ccc(O)c(O)c1 (centres undefined)
53 to 56 | O=Cc1ccc(CN2CCOCC2)cc1
157 to 158 | CCOC(=O)c1sc2nc(C)cc(C)c2c1N
205 to 207 | CC(C)(C)c1cc(C(C)(C)C)n(-c2ccc(N)cc2)n1
238 | CC(CN1CC(=O)NC(=O)C1)N1CC(=O)NC(=O)C1 (centres undefined)
209 | N#CC1=C(N)N2C(=C(C#N)C1c1ccc(Cl)cc1)Sc1ccccc12 (centres undefined)
-80 | O=CC12CC=CCC1C1CC=CCC1O2 (centres undefined)
148 | Cc1ccc(O[C@H]2CC[C@@]3(C)C(=CC[C@H]4[C@@H]5CC[C@H]([C@H](C)CCCC(C)C)[C@@]5(C)CC[C@@H]43)C2)cc1
229 to 232 | S=c1[nH]c2ccc(Cl)cc2o1
160 | CC(C=CC=C(C)C=CC1=C(C)CCCC1(C)C)=CC=CC=C(C)C=CC=C(C)C=CC1=C(C)CC(O)CC1(C)C (centres undefined)
88 to 91 | CSC(SC)=C(C#N)C(=O)c1cccc(Cl)c1
223 to 224 | Cc1nn(-c2ccccc2)c2oc3ncccc3c(=O)c12
109 to 111 | Nc1cccc2nonc12
107 to 108 | CN(N)c1cnc2ccccc2n1
224 to 226 | COc1c(Br)cc(C(=O)O)cc1Br
121 to 124 | COC(=O)c1ccccc1SCC#N
162 to 163 | Cc1n[nH]c2c1c(=O)n(-c1ccccc1)c1ccccc21
38 | Cc1cc(Br)ncc1Br
47 | COc1cccnc1Cl
300 | Cc1cc2nc3[nH]c(=O)[nH]c(=O)c3nc2cc1C
203 to 204 | Cc1ccccc1N1C(=O)C2ON=C(C(=O)c3ccco3)C2C1=O (centres undefined)
78 | CC1(C)OC2(C)CCC1C(=O)OC2(C)C (centres undefined)
156 | Cc1ccncc1C=NNc1ccc([N+](=O)[O-])cc1[N+](=O)[O-]

melting point [°C] | Compound
60 | COC(=O)C(c1ccccc1)c1ccccc1
150 | CCOC(=O)C1CCN(c2nc(Cl)nc(Cl)n2)CC1
59 to 63 | CC(O)C(c1ccccc1)c1ccccc1 (centres undefined)
21 | COC(=O)c1cccc(Cl)c1
215 to 216 | N#CC1(C(=O)c2ccccc2)C(c2ccccc2)NC(=O)NC1c1ccccc1 (centres undefined)
-20 | CCCCCCCCC1CCCCC1
242 to 243 | COC(=O)CCC(C)C1CCC2C3C(=O)CC4CC(=O)CCC4(C)C3CC(=O)C12C (centres undefined)
135 to 137 | CC(O[S+]([O-])C(C)(C)C)C(O)(c1ccccc1)c1ccccc1 (centres undefined)
114 | O=C1C(=Cc2ccccc2)SC(=S)N1CN1CCCCC1
246 to 248 | CC(=O)c1c(C)nc2cc3nc(C)c(C(C)=O)c(C)c3cc2c1C
29 to 31 | Cc1ccc2ncoc2c1
330 | O=C(O)/C=C/c1ccc2ccc(=O)[nH]c2c1
267 to 268 | O=C(O)c1nc2ccccc2nc1O
66 to 68 | Cc1cnc(Cl)c(Br)c1
59 to 61 | CC1=CCC=C(C)CCC=C(C)CCC(C(C)C)C=C1 (centres undefined)
98 to 100 | CCCc1ccc(NC(C)=O)cc1
114 | COc1ccc(Br)cc1S(=O)(=O)Cl
214 | CC(C)(C)N(NC(=O)c1ccccc1)C(=O)c1cc(Cl)ccc1Cl
265 to 270 | Cc1cc(-c2ccc(NC=O)c(C)c2)ccc1NC=O
130 to 132 | NC(=O)c1cccc2c1OCCO2
277 | C=C1C(=O)C23C(OC(C)=O)CC4C(C)(C)CCC(OC(C)=O)C4(C)C2C(OC(C)=O)CC1C3OC(C)=O (centres undefined)
189 | CCCOC(=O)C1=C(C)NC(=O)NC1c1ccccc1O (centres undefined)
